The values that follow come from patent publication US20170095440A1, “METHOD OF TREATING CANINE PANCREATITIS” (CK9, LLC, priority 2014, published 2017).

Structures are written as SMILES. Entries after “also recorded” stand apart in the source; their conditions may differ.

Series [1] has as its system dogs with suspected chronic pancreatitis. Kind of series: Serum C-reactive protein before and after treatment, clinical trial. The format is in vivo, dog. The settings on record: 8 mg/kg q 8 hrs, n=17.
Another series concerns the target plasmin (Homo sapiens, UniProt P00747). The settings on record: cited from earlier work.
Series [2] concerns dogs with suspected chronic pancreatitis. Put plainly: Quality of life reported by owners and referring vets, clinical trial. The format is in vivo, dog. The procedure: Treatment effects on overall health status, quality of life, and clinical signs were also evaluated with serum biochemistry profiles, complete blood counts, and owner questionnaires.
Patients were treated at home and their overall health was monitored by their owners and the referring physician.
Owners of enrolled dogs received instructions to refrain from changing the dog's diet during the trial period and to report on the overall health status and quality of life of their pet.

Another series deals with Beagle dogs. Put plainly: Rising-dose tolerance study, oral capsule. Format: in vivo, dog. On the procedure: The following parameters and end points were evaluated in the rising-dose phase of this study: clinical signs, body weights, body weight changes, food consumption, electrocardiography, clinical pathology parameters (hematology, clinical chemistry, and urinalysis), and gross necropsy findings.
3 male and 3 female Beagle dogs were received from Marshall BioResources, North Rose, N.Y. The animals were examined and weighed on the day following receipt. The rising-dose phase animals were 6 months old and weighed 7.5 kg and 8.3 kg at initiation of dosing. The multiple-dose phase animals were 7 months old and weighed 7.4 kg and 7.6 kg at initiation of dosing.
For the rising-dose phase, the test article was administered to the appropriate animals by oral capsule. At least a 3-day washout period was maintained before proceeding to the next dose level; therefore, dosing occurred on Days 1, 5, 9, 15, and 19. The dose amount for each animal was based on the most recent body weight measurement. The first day of dosing was designated as Study Day 1.
The animals were removed from the cage and a detailed clinical observation was performed daily, beginning during Week −1, 1 to 3 hours postdose on days of dosing. Each animal was weighed on the day of randomization and Days 1, 5, 9, 15, 19, and 22. Food consumption was quantitatively measured for each animal daily, starting Week −1, throughout the dosing period, except for on the day of scheduled euthanasia. Electrocardiogram (ECG) measurements were obtained from all animals using leads I, II, III, aVR, aVL, and aVF and a chart speed of 50 mm/second. The ECG measurements were obtained once pretreatment and at approximately 3 hours postdose on Days 1, 5, 9, 15, and 19. Only lead II was evaluated by a board-certified veterinary cardiologist.
Blood was collected by venipuncture of the jugular vein. Urine was collected overnight by cage pan drainage. After collection, samples were transferred to the clinical pathology laboratory for processing. The animals were fasted overnight prior to scheduled clinical pathology sample collections, but had access to water ad libitum. Samples were collected according to Table 5.
Rising-dose phase animals surviving until scheduled euthanasia were weighed, samples for evaluation of clinical pathology parameters were collected as specified above, and the animals were euthanized by sodium pentobarbital injection, followed by exsanguination. Animals were fasted overnight before their scheduled necropsy.
Rising-dose phase animals were subjected to a complete necropsy examination, which included evaluation of the carcass and musculoskeletal system; all external surfaces and orifices; cranial cavity and external surfaces of the brain; and thoracic, abdominal, and pelvic cavities with their associated organs and tissues. Necropsy examinations were conducted under the supervision of a board-certified veterinary pathologist.

Another series concerns the target trypsin (Homo sapiens, UniProt P07477). Conditions: cited from earlier work.
[3] abbreviates: following each dose, 10-250 mg/kg, methanesulfonate.

plasmin, sequence (P00747 581-810 limits assumed, species assumed): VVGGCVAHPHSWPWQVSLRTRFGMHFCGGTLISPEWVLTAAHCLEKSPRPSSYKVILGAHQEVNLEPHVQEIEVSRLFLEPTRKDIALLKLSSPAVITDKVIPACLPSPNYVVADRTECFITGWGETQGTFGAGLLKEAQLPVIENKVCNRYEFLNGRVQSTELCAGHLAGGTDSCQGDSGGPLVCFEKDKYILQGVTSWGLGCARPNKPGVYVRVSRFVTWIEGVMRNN
plasmin, sequence (P00747 97-580 partner limits assumed, species assumed): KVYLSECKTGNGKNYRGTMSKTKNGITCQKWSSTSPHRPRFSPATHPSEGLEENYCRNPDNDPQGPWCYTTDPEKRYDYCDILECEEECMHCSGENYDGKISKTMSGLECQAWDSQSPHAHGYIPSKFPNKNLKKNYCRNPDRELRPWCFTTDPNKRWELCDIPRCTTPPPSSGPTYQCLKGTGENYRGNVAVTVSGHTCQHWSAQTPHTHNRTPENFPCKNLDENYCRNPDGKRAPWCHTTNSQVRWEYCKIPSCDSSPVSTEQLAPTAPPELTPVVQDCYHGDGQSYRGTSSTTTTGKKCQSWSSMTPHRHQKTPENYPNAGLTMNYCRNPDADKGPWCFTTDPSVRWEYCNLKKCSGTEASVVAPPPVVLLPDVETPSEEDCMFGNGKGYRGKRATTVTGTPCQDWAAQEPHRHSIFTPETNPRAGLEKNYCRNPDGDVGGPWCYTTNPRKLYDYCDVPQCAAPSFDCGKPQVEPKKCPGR

Take `CN(C)C(=O)COC(=O)Cc1ccc(OC(=O)c2ccc(NC(=N)N)cc2)cc1` [Camostat Mesilate, N,N-dimethylcarbamoylmethyl-4-(4-guanidinobenzoyloxy)phenylacetate methanesulfonate]: in series [1] (methanesulfonate), the “Change in serum C-reactive protein, pre- vs post-treatment” value is listed as “no significant difference; also recorded: did not change significantly”. In addition, in series [1] (pre-treatment median 0.1, post range 0.1-6.8, p=0.25), the “Serum C-reactive protein concentration post-treatment (median)” value stood at 0.1 mg/L. For the same compound, the Anti-plasmin activity entry at plasmin is recorded as “anti-plasmin activity”. In addition, the “Quality of life, reports from referring vets and pet owners” value in series [2] (24 mg/kg q d orally) is listed as “subjective improvement of quality of life in some patients”. Also, the “Quality of life, overall consensus from pet owners” value in series [2] (all treated dogs) is “had improved”. Further, the Clinical observations entry was “soft feces were noted in the female the day after dosing” in the series with Beagle dogs (10 mg/kg single oral dose); “no clinical observations noted” in the series with Beagle dogs (30 mg/kg single oral dose); “clear ocular discharge was observed in the female” in the series on Beagle dogs (100 mg/kg single oral dose); “slight salivation and soft feces/feces with mucoid material were observed in the male and female” in the series on Beagle dogs (200 mg/kg single oral dose, methanesulfonate); “severe salivation was observed following dosing in the male and female; also recorded: salivation and soft feces/feces with mucoid material” in the series on Beagle dogs (250 mg/kg single oral dose, methanesulfonate). Further, the Gross necropsy findings entry in the series with Beagle dogs (Day 22) was “no gross necropsy findings”. Besides, the Body weight result in the series with Beagle dogs (between doses, 10-250 mg/kg) is on record as “no notable changes”. In addition, the Food consumption result in the series with Beagle dogs (between doses, 10-250 mg/kg) was “no notable changes”. The “Clinical chemistry, potential test article-related changes” value is “increased creatine kinase” in the series with Beagle dogs (female, following the 200 and 250 mg/kg doses); “increased creatinine, total bilirubin, and urea nitrogen” in the series with Beagle dogs (male, following the 250 mg/kg dose). Further, in the series on Beagle dogs (setting [3]), the Hematology parameters result is “no toxicologically meaningful changes; also recorded: no notable changes”. For the same compound, the Urinalysis parameters result in the series with Beagle dogs (setting [3]) is given as “no toxicologically meaningful changes; also recorded: no notable changes”. In the series with Beagle dogs (single oral doses 10, 30, 100, 200, 250 mg/kg, 1 male and 1 female, methanesulfonate), the Survival result was “No rising-dose phase animals died; also recorded: All animals survived to scheduled euthanasia”. In addition, the Anti-trypsin activity entry on trypsin was “pronounced anti-trypsin”.
